From US20130171189A1, “INDUCIBLE AND REPRESSIBLE VACCINIA VIRUSES WITH IMPROVED SAFETY” (priority 2011, published 2013) come the findings set out here.

This data set concerns BS-C-1 cells. In kind it is cell-based. The conditions noted are these: vRG0-infected cells. On the procedure: EGFP Expression Levels by vRG0 Were not Repressed Even in the Presence of High Concentrations of TCs: To test whether vRG0 was repressible by TCs, BS-C-1 cells were infected with vRG0 in the presence of increasing concentrations of ATC, TET, or DOX. The cytopathic effect observed by brightfield microscopy 2 days post-infection was indistinguishable from the cytopathic effect observed from cells treated with ATC and 10 μg/ml or less of TET or DOX (data not shown).
Since TCs complexed to MgCl2 bind to the TetR repressor with higher affinity than TCs alone (a commonly used strategy when studying induced conformation of the repressor by x-ray crystallography), ATC was incubated with MgCl2 to allow for complex formation.

Where [1] appears, read: 100 μg/ml, 2 days post-infection.

Where two headings read alike, the source gives them in different places.

In the case of `Cc1c2c(c(O)c3c(O)cccc13)C(=O)[C@]1(O)C(=O)C(C(N)=O)=C(O)[C@@H](N(C)C)[C@@H]1C2` [ATC, anhydrotetracycline], under “lower concentrations than TET and DOX”, the Cell toxicity result is reported as “did not incur any toxicity”.
As for `C[C@H]1c2cccc(O)c2C(=O)C2=C(O)[C@]3(O)C(=O)C(C(N)=O)=C(O)[C@@H](N(C)C)[C@@H]3[C@@H](O)[C@@H]21` [DOX, doxycycline], under setting [1], the Cell toxicity result was “morphology associated with cell toxicity”.
Regarding `[Cl-].[Cl-].[Mg+2]` [MgCl2], for the setting “100 mM MgCl2 (ATC-MgCl2), 2 days”, the Cell toxicity result is “toxicity-associated morphology”.
For the compound `CN(C)[C@@H]1C(O)=C(C(N)=O)C(=O)[C@@]2(O)C(O)=C3C(=O)c4c(O)cccc4[C@@](C)(O)[C@H]3C[C@@H]12` [TET, tetracycline], the Cell toxicity entry under setting [1] was “morphology associated with cell toxicity”.
